Experimental data taken from patent US20250368678A1, “19-NOR-C3,3-DISUBSTITUTED C21-AZACYCLO-S[…] AND METHOD FOR USING SAME” (SHANDONG LUYE PHARMACEUTICAL CO., LTD., priority 2022, published 2025).
Read-outs that look alike come from different tables or passages of the source.

Experiments:
SD rats [1] = test: Loss of righting reflex in SD rats, intraperitoneal injection; format: in vivo; details: for rate of loss of righting reflex: within 4 h
Excerpt: To determine the threshold for the loss of righting reflex in SD rats after injection of compound 41 in order to evaluate the sedative effect and therapeutic safety window of the compound.
Male SD rats weighing 180-200 g, as test animals, were acclimatized for 7 days after arriving at the animal facility and were randomly divided into groups based on weight one day before testing. The rats were fasted for half a day before testing but had access to water. Doses of compound 41 were designed in a 0.8-fold gradient, and the doses were set at 23.5 mg/kg, 18.8 mg/kg, 15 mg/kg, 12 mg/kg, and 9.6 mg/kg. Observations were made on the loss of righting reflex within 4 h of intraperitoneally injecting compound 41 into the rats.

[2] = target: T1, α1β2γ2 GABA receptors (α1β2γ2-CHO-TRex stable cell strain) (Homo sapiens, UniProt P14867+P47870); test: Whole-cell patch clamp, intrasynaptic functional activity (positive allosteric regulation of GABA-induced current); format: cell-based; details: patch clamp -60 mV, GABA at EC10-20, α1β2γ2-CHO-TRex cells
T1 construct: expressed in transfected cells
T1 sequence (P14867 28-456): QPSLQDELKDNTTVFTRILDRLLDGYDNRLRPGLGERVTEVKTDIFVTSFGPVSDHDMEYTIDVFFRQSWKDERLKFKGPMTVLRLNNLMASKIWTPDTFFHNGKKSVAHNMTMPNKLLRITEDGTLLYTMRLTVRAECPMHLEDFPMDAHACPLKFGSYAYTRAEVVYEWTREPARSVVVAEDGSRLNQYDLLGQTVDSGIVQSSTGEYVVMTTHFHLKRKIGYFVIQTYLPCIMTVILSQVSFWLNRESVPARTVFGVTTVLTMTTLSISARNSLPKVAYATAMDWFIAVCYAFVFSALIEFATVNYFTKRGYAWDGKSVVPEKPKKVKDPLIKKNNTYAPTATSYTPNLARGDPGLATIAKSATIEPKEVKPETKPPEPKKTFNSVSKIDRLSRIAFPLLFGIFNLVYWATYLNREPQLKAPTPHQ
T1 sequence (P47870 25-512 limits assumed): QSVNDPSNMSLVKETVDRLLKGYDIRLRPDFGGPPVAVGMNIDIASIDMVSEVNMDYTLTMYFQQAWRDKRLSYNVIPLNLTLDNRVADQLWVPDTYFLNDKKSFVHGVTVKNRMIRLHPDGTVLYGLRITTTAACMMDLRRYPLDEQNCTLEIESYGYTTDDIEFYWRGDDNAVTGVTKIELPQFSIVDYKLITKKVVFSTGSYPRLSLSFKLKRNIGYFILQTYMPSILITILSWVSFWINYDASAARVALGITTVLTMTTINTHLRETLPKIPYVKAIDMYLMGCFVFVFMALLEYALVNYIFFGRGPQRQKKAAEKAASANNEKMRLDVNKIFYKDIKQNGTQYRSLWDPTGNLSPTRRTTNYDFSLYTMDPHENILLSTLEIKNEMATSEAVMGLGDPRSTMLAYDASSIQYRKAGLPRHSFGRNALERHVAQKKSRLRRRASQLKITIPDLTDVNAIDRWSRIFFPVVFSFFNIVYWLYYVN
T1 sequence (P18507 40-475 partner): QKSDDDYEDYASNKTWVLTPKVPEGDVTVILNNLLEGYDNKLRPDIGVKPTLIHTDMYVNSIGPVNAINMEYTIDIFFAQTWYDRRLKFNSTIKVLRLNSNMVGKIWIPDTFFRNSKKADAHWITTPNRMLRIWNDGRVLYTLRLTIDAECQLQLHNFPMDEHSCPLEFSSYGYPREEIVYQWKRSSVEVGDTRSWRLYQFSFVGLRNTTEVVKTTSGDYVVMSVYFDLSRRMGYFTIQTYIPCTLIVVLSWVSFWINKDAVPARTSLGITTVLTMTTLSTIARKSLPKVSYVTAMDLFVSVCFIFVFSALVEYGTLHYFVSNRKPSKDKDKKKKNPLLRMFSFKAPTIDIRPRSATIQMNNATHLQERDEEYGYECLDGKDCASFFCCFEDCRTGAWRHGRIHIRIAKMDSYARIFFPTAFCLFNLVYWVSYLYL
Summary of the method: (§1)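 Tetracycline-induced stable lines were used: α4β3δ in HEK-FlpIn-TRex and α1β2γ2 in CHO-TRex. Whole-cell patch clamp was run at −60 mV with GABA at EC10-20 ([…]) and compound perfused for 30 s before GABA, with extracellular pH 7.4. Fold increase in GABA current over ≥5 concentrations on ≥3 cells gave EC50 and Emax by Hill fit.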

[3] = target: T2, α4β3δ GABA receptors (α4β3δ-HEK-FlpIn-TRex stable cell strain) (Homo sapiens, UniProt P28472+P48169); test: Whole-cell patch clamp, extrasynaptic functional activity (positive allosteric regulation of GABA-induced current); format: cell-based; details: patch clamp -60 mV, GABA at EC10-20, α4β3δ-HEK-FlpIn-TRex cells
T2 construct: expressed in transfected cells
T2 sequence (P48169 36-554): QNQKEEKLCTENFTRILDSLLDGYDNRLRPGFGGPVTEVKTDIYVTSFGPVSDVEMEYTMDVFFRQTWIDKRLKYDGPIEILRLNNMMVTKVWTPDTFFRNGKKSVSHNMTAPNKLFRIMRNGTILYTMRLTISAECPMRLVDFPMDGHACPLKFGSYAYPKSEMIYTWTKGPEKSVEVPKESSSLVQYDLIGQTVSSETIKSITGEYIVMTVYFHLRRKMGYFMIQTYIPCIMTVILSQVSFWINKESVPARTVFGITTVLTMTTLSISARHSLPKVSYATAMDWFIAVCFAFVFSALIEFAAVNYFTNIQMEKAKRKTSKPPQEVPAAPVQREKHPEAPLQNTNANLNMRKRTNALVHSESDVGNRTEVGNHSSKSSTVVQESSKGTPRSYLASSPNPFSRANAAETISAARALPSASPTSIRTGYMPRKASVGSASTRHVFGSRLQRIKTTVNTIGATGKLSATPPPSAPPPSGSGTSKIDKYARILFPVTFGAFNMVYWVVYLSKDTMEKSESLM
T2 sequence (P28472 26-473): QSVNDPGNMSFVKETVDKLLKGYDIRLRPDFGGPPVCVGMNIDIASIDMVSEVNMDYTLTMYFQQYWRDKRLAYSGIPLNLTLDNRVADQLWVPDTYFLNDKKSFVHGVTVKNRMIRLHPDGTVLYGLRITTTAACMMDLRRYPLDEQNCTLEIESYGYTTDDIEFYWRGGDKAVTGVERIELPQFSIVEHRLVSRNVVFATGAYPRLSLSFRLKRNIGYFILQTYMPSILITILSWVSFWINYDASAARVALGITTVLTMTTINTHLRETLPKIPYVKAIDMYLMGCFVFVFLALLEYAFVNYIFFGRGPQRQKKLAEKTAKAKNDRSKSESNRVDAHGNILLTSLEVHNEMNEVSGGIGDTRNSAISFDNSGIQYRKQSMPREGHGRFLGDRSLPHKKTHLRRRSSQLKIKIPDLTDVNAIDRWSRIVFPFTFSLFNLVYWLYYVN
T2 sequence (O14764 25-452 partner): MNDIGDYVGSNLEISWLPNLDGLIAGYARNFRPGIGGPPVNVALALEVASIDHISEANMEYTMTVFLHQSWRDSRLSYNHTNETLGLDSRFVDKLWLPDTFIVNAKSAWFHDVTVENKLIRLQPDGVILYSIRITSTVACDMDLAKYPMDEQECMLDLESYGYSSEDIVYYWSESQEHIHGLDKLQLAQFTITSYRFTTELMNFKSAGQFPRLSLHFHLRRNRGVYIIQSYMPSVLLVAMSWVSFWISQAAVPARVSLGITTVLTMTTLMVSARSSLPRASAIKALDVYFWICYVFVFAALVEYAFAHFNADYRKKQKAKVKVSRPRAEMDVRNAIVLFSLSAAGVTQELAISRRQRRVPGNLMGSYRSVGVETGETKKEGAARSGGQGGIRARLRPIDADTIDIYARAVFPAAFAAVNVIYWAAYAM
Summary of the method: as §1

SD rats [4] = test: Anticonvulsant effect, pentylenetetrazol (PTZ)-induced epileptic convulsion SD rat model; format: in vivo
Description: To establish an epileptic convulsion SD rat animal model by intraperitoneally injecting 50 mg/kg of pentylenetetrazol (PTZ) into SD rats, and evaluate the anticonvulsant effect of compound 41.
Male SD rats weighing 300±10 g, as test animals, were acclimatized for 7 days after arriving at the animal facility and were randomly divided into groups based on weight one day before administration. The rats were fasted for half a day before testing but had access to water. During the test, compound 41 was orally administered to the animals at 3.5 mg/kg in advance. Two hours after the oral administration, a PTZ solution was intraperitoneally injected at 50 mg/kg. Observations were made on the rats' epileptic convulsion behavior within 1 h of performing PTZ induction. The latency period of clonic convulsion and the latency period of tonic-clonic behavior were measured.
Behavioral raw data are finally expressed as mean±standard error (Mean S.E.M.) and statistically analyzed using One-way ANOVA Dunnett post hoc. P<0.05 indicates the presence of a significant difference, P<0.01 indicates the presence of a very significant difference, and P<0.001 indicates the presence of an extremely significant difference.

[5] = Pharmacokinetic study in CD-1 mice (plasma and brain); format: in vivo
Description: Male CD-1 mice weighing about 25 g were randomly divided into groups of 3.
The intravenous (IV) dose was 1 mg/kg, and the intragastric (IG) dose was 5 mg/kg. Animals were fasted for 12 h before administration, with free access to water, and were fed together 3 h post-administration. Blood samples of about 0.15 mL were collected at 5 min (intravenous), 15 min, 30 min, 1 h, 2 h, 4 h, 8 h, 12 h, and 24 h post-administration into heparinized EP tubes and centrifuged at 13,500 rpm for 10 min to separate the plasma. Mouse brain tissue samples were collected after cardiac perfusion at 30 min, 2 h, and 8 h. After pretreatment, the samples were analyzed by LC-MS/MS to determine the concentration of the test compound in the plasma and brain, and pharmacokinetic parameters were calculated.

[6] = 3.5 mg/kg oral 2 h before PTZ 50 mg/kg i.p., observed 1 h, P<0.001 vs solvent control
[7] = male, mouse, IV 1 mg/kg, plasma
[8] = male, mouse, plasma, IV 1 mg/kg
[9] = male, mouse, plasma, po, IG 5 mg/kg
[10] = male, mouse, po, IG 5 mg/kg, plasma

SMILES: C[C@@]1(O)CC[C@H]2[C@H](CC[C@@H]3[C@@H]2CC[C@]2(C)[C@@H](C(=O)Cn4cnn(-c5cc(F)nc(F)c5)c4=O)CC[C@@H]32)C1 [Compound 41]
- rate of loss of righting reflex (SD rats [1]; 9.6 mg/kg intraperitoneal): 0
- rate of loss of righting reflex (SD rats [1]; 12 mg/kg intraperitoneal): 0
- rate of loss of righting reflex (SD rats [1]; 15 mg/kg intraperitoneal): 30%
- rate of loss of righting reflex (SD rats [1]; 18.8 mg/kg intraperitoneal): 50%
- rate of loss of righting reflex (SD rats [1]; 23.5 mg/kg intraperitoneal): 80%
- therapeutic safety window (in words) (SD rats [1]; intraperitoneal): relatively wide
- threshold dose for the loss of righting reflex (SD rats [1]; intraperitoneally injected): 12 mg/kg
- EC50 [2]: 145 nM
- Emax [2]: 762%
- EC50 [3]: 67 nM
- Emax [3]: 754%
- latency period of clonic convulsion behavior (SD rats [4]; [6]): 2764.6 ± 1330.9 s
- latency period of tonic-clonic behavior (SD rats [4]; [6]): 3600 ± 0 s
- effective dose for the antiepileptic convulsion effect (SD rats [4]; oral, PTZ model): 3.5 mg/kg
- brain penetration capability (in words) ([5]; IG 5 mg/kg): strong
- AUC(0-inf) [5, 7]: 4320 ng·h/mL
- AUC(0-t) [5, 7]: 3660 ng·h/mL
- C0 [5, 7]: 490 ng/mL
- concentration at 30 min ([5]; male, mouse, brain, oral, IG 5 mg/kg, 30 min, read-out: Brain concentration): 847 ± 36 ng/g
- concentration at 2 h ([5]; male, mouse, brain, oral, IG 5 mg/kg, 2 h, read-out: Brain concentration): 1920 ± 978 ng/g
- concentration at 8 h ([5]; male, mouse, brain, oral, IG 5 mg/kg, 8 h, read-out: Brain concentration): 1590 ± 233 ng/g
- Kp at 30 min ([5]; male, mouse, brain/plasma, oral, IG 5 mg/kg, 30 min, read-out: Brain-to-blood ratio): 0.9
- Kp at 2 h ([5]; male, mouse, brain/plasma, oral, IG 5 mg/kg, 2 h, read-out: Brain-to-blood ratio): 1.5
- Kp at 8 h ([5]; male, mouse, brain/plasma, oral, IG 5 mg/kg, 8 h, read-out: Brain-to-blood ratio): 1.8
- MRT last [5, 8]: 7.9 h
- half-life [5, 8]: 9 h
- bioavailability ([5]; male, mouse, plasma, oral, IG 5 mg/kg vs IV 1 mg/kg, read-out: F (absolute bioavailability)): 109%
- concentration at 30 min ([5]; male, mouse, plasma, oral, IG 5 mg/kg, 30 min, read-out: Plasma concentration): 936 ± 119 ng/mL
- concentration at 2 h ([5]; male, mouse, plasma, oral, IG 5 mg/kg, 2 h, read-out: Plasma concentration): 1280 ± 345 ng/mL
- concentration at 8 h ([5]; male, mouse, plasma, oral, IG 5 mg/kg, 8 h, read-out: Plasma concentration): 891 ± 72 ng/mL
- MRT last [5, 9]: 9.8 h
- Tmax [5, 9]: 1 h
- half-life [5, 9]: 16.5 h
- AUC(0-inf) [5, 10]: 31300 ng·h/mL
- AUC(0-t) [5, 10]: 20000 ng·h/mL
- Cmax [5, 10]: 1670 ng/mL
